Results from the supplement of paper PMC3493320.

test system: NCI-H295R; test: IC50 (antiproliferative, ATP content); settings: 48 h
In short: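 Serum-free ITS-supplemented DMEM was used to seed 1500 adrenocortical carcinoma cells per well in 1536-well plates, which were cultured overnight. Eight final concentrations of each library compound, from 0.6 nM to 46 µM, were added by pin transfer, followed by 48 h at 37 °C in 5% CO2 and a CellTiter-Glo ATP read after 20 min at room temperature. Luminescence was set against vehicle and positive-control wells, and the IC50 was obtained by logistic curve fitting. Any compound with no concentration response was entered as above the top dose.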

Structure (SMILES)	IC50
CC(C)(N)Cc1ccc(Cl)cc1.Cl	> 46 µM
O=C(O)COc1ccc(CCNS(=O)(=O)c2ccccc2)s1	> 46 µM
C[C@@H](CC)C(=O)O[C@H]2C[C@@H](C)\C=C3\C=C/[C@H](C)[C@H](CC[C@@H]1C[C@@H](O)CC(=O)O1)[C@@H]23	> 46 µM
Cc1cccc(Nc2ccncc2S(=O)(=O)NC(=O)NC(C)C)c1	> 46 µM
C[C@H]1CC[C@]2(NC1)O[C@H]1C[C@H]3[C@@H]4CC[C@H]5C[C@@H](O)CC[C@]5(C)[C@H]4CC[C@]3(C)[C@H]1[C@@H]2C.Cl	> 46 µM
COc1ccc2c3c1O[C@H]1[C@@H](O)C=C[C@H]4[C@@H](C2)NCC[C@@]341	> 46 µM
CCCc1nc(C)c2c(=O)nc(-c3cc(S(=O)(=O)N4CCN(CC)CC4)ccc3OCC)[nH]n12.O=C(O)CC(O)(CC(=O)O)C(=O)O	> 46 µM
CNC(=C[N+](=O)[O-])NCCSCc1csc(CN(C)C)n1	> 46 µM
CCCc1cc(C(N)=S)ccn1	> 46 µM
CCCCCl	> 46 µM
CCCC(=O)Nc1ccc(OCC(O)CNC(C)C)c(C(C)=O)c1.Cl (configuration not stated)	> 46 µM
O=C(CCCN1CCC(n2c(=O)[nH]c3ccccc32)CC1)c1ccc(F)cc1	> 46 µM
CC(C(=O)O)c1ccc(CC2CCCC2=O)cc1 (configuration not stated)	> 46 µM
CCCN1CCC[C@H](c2cccc(O)c2)C1.Cl	> 46 µM
Cl.Cl.OCCN1CCN(CC/C=C2\c3ccccc3Sc3ccc(Cl)cc32)CC1	> 46 µM
CN1CCC[C@@H]1CCO[C@](C)(c1ccccc1)c1ccc(Cl)cc1.O=C(O)/C=C/C(=O)O	> 46 µM
CC(=O)O.CNC(=N)NCCC[C@H](N)C(=O)O	> 46 µM
CCCCN(CCCC)CCCOC(=O)c1ccc(N)cc1	> 46 µM
CCCCN1CCCC[C@H]1C(=O)Nc1c(C)cccc1C.Cl	> 46 µM
C=C[C@H]1CN2CCC1C[C@@H]2[C@@H](O)c1ccnc2ccccc12 (some centres not stated)	> 46 µM
CCC(N)Cc1c[nH]c2ccccc12 (configuration not stated)	> 46 µM
O=C1CCc2cc(OCCCCc3nnnn3C3CCCCC3)ccc2N1	> 46 µM
Cc1ncc(COP(=O)(O)O)c(C=O)c1O.O	> 46 µM
Nc1ccncc1	> 46 µM
CCCN1CCC[C@@H]2Cc3n[nH]cc3C[C@H]21	> 46 µM
C[N+]1(CCC(C(N)=O)(c2ccccc2)c2ccccc2)CCCCC1.[Br-]	> 46 µM
Cc1ccc(C(C)C)cc2c(C)ccc1-2	> 46 µM

Structure (SMILES)	IC50
Cc1cc(NS(=O)(=O)c2ccc(N)cc2)nc(C)n1	> 46 µM
FC(F)OC(Cl)C(F)(F)F (configuration not stated)	> 46 µM
O=C1OC(c2ccc(O)cc2)(c2ccc(O)cc2)c2ccccc21	> 46 µM
CC(C)C[C@H](CN)CC(=O)O	> 46 µM
C=C(C)[C@@H]1[C@H]2OC(=O)[C@@H]1[C@]1(O)C[C@H]3O[C@]34C(=O)O[C@H]2[C@]14C.CC(C)(O)[C@@H]1[C@H]2OC(=O)[C@@H]1[C@]1(O)C[C@H]3O[C@]34C(=O)O[C@H]2[C@]14C	> 46 µM
Clc1ccc(C2(Cn3cncn3)OCCO2)c(Cl)c1	> 46 µM
O=C([C@H]([C@]4=CC=CC=C4)CO)O[C@@H]1C[C@@H]3[C@@H]2[C@@H](O2)[C@@H]([N@+]([O-])3C)C1.Br	> 46 µM
CNC(=O)Oc1cccc2ccccc12	> 46 µM
CCC1(C)CC(=O)NC(=O)C1	> 46 µM
Cc1ncc(C[n+]2csc(CCOP(=O)(O)OP(=O)(O)O)c2C)c(N)n1.[Cl-]	> 46 µM
NC(=O)CN1CC(O)CC1=O (configuration not stated)	> 46 µM
CC(O)COc1ccccc1 (configuration not stated)	> 46 µM
O=C(O)CN(CCN(CC(=O)O)CC(=O)O)CCN(CC(=O)O)CC(=O)O	> 46 µM
NC(=S)N/N=C/c1cccnc1	> 46 µM
NC[C@H]1O[C@H](O[C@H]2[C@H](O)[C@@H](O[C@H]3O[C@H](CO)[C@@H](O)[C@H](N)[C@H]3O)[C@H](N)C[C@@H]2N)[C@H](O)[C@@H](O)[C@@H]1O.O=S(=O)(O)O	> 46 µM
[NH2][Pt]1([NH2])[O]CC(=O)[O]1	> 46 µM
CC=Cc1ccc(OC)cc1	> 46 µM
CN1CCN(C2=Nc3ccccc3Oc3ccc(Cl)cc32)CC1.O=C(O)CCC(=O)O	> 46 µM
NS(=O)(=O)c1cc2c(cc1Cl)NC(Cc1ccccc1)NS2(=O)=O (configuration not stated)	> 46 µM
COc1ccccc1N1CCN(CCCCNC(=O)c2ccc(-c3ccc(C(C)=O)cc3)cc2)CC1	> 46 µM
ClC(Cl)(Cl)Cl	> 46 µM
C=CC[N@@+]1(C)CC[C@]23c4c5ccc(O)c4O[C@H]2C(=O)CC[C@@]3(O)[C@H]1C5.[I-]	> 46 µM
Nc1nc(N)nc(-c2cc(Cl)ccc2Cl)n1.O=C(O)/C=C\C(=O)O	> 46 µM
C=C1[C@H](CO)[C@@H](O)C[C@@H]1n1cnc2c(=O)[nH]c(N)nc21	> 46 µM
CN1C(C)(C)CCCC1(C)C.O=C(O)[C@@H](O)[C@H](O)C(=O)O	> 46 µM
CCCCCCCCCCCCCCCC(=O)NCCO	> 46 µM
Nc1nc(O)c(-c2ccccc2)o1	> 46 µM

Next, values leading:

IC50	Structure (SMILES)
> 46 µM	CCN1CCC[C@H]1CNC(=O)c1c(OC)ccc(Br)c1OC
> 46 µM	Cl.NC(CO)C(=O)NNCc1ccc(O)c(O)c1O (configuration not stated)
> 46 µM	CCCC(=O)Nc1ncnc2c1ncn2[C@@H]1O[C@@H]2COP(=O)(O)O[C@H]2[C@H]1OC(=O)CCC
> 46 µM	CC(CN(C)C)C(C)(O)Cc1ccc(Cl)cc1.Cl (configuration not stated)
> 46 µM	CC(C)=CCC/C(C)=C/CC/C(C)=C/CC/C=C(\C)CC/C=C(\C)CCC=C(C)C
> 46 µM	F[C@]2([C@](C)3CC4)[C@@H](O)C[C@]([C@](C5)([H])[C@@]([H])2CCC3=CC4=O)(C)[C@@]1([C@](CCl)=O)[C@@H]5OC(C)(C)O1
> 46 µM	CC(=O)Oc1cc(C(F)(F)F)ccc1C(=O)O
> 46 µM	CC(=O)Oc1ccc(C(c2ccc(OC(C)=O)cc2)c2ccccn2)cc1
> 46 µM	O=C(O)c1cccc(-c2noc(-c3ccccc3F)n2)c1
> 46 µM	O=[C@]([C@@H]3N([C@@H]2SC(C)3C)C([C@H]2NC([C@@H](C1=CC=C(C=C1)O)N)=O)=O)O
> 46 µM	CC(C)[C@@H]1CC[C@@H](C)C[C@H]1O
> 46 µM	O=C1C2CC3CC1CC(O)(C3)C2
> 46 µM	CC(C)(C)NC[C@H](O)COc1nsnc1N1CCOCC1
> 46 µM	NC[C@@H](C1)[C@]1([C@@]2=CC=CC=C2)C(N(CC)CC)=O.Cl
> 46 µM	CC[N+](CC)(CC(=O)Nc1c(C)cccc1C)Cc1ccccc1.O=C([O-])c1ccccc1
> 46 µM	Cc1cc(C)c(NC(=O)C[C@H](CC(=O)[O][Na])c2cccc3ccccc23)c(C(=O)N2CCC3(CCCC3)CC2)c1
> 46 µM	COc1cc(C(=S)N2CCOCC2)cc(OC)c1OC
> 46 µM	C1CNCCN1.C[C@H](CCC(=O)O)[C@H]1CC[C@H]2[C@@H]3[C@H](O)C[C@@H]4C[C@H](O)CC[C@]4(C)[C@H]3C[C@H](O)[C@]12C
> 46 µM	C[C@]12CCC(=O)C=C1C=C[C@@H]1[C@@H]2CC[C@@]2(C)[C@H]1CC[C@@]21CCC(=O)O1
> 46 µM	Cc1c(N(C)C)c(=O)n(-c2ccccc2)n1C
> 46 µM	O=C(OCCOCCO)c1ccccc1Nc1cccc(C(F)(F)F)c1
> 46 µM	CC=CC1=C(C(=O)O)N2C(=O)[C@@H](NC(=O)[C@H](N)c3ccc(O)cc3)[C@H]2SC1.O
> 46 µM	CCN1CC(CCN2CCOCC2)C(c2ccccc2)(c2ccccc2)C1=O.Cl (configuration not stated)
> 46 µM	C[C@@H](CN1CC(=O)NC(=O)C1)N1CC(=O)NC(=O)C1

IC50	Structure (SMILES)
> 46 µM	CCCC(=O)[O-].[Na+]
> 46 µM	O[C@H](C)[C@@H](N[C@]([C@@H]2C[C@@H](CCC)CN2C)=O)[C@@H]1[C@H](O)[C@H](O)[C@@H](O)[C@@H](SC)O1.Cl
> 46 µM	CCCc1c(OCCCCc2nnn[nH]2)ccc(C(C)=O)c1O
> 46 µM	O=C(O)C(=O)O.c1ccc2cc(C3=NCCN3)ccc2c1
> 46 µM	Nc1ccc(S(=O)(=O)NC(=O)c2ccccc2)cc1
> 46 µM	CC1=CCC2CC1C2(C)C (configuration not stated)
> 46 µM	O=C(C=Cc1ccccc1)NCCO
> 46 µM	CCCCCCCCCCCCOS(=O)(=O)[O-].[Na+]
> 46 µM	[NH2][Pt]([NH2])([Cl])[Cl]
> 46 µM	CCCCOc1ccc(OCCCN2CCOCC2)cc1.Cl
> 46 µM	CCCCCCCCCCCCCC[n+]1ccc(C)cc1.[Cl-]
> 46 µM	CCCOc1ccccc1-c1nc2[nH]nnc2c(=O)[nH]1
> 46 µM	Cc1cc(NC(=O)C2=C(O)c3ccccc3S(=O)(=O)N2C)no1
> 46 µM	Clc1ccccc1CN1CCc2sccc2C1
> 46 µM	NS(=O)(=O)c2cc1c(/N=C\NS1(=O)=O)cc2Cl
> 46 µM	O=C(COc1ccc(Cl)cc1)OCCNC12CC3CC(CC(C3)C1)C2
> 46 µM	O=C(Oc1cccc2cccnc12)c1ccccc1
> 46 µM	N[C@@]([C@H]([C@H]1O)O[C@H]([C@@H]([C@H]1O)O)O)=O
> 46 µM	CC1CC(OC(=O)C(O)c2ccccc2)CC(C)(C)C1 (configuration not stated)
> 46 µM	C[C@H](CCC(=O)[O-])[C@H]1CC[C@H]2[C@@H]3CC[C@@H]4C[C@H](O)CC[C@]4(C)[C@H]3C[C@H](O)[C@]12C.[Na+]
> 46 µM	O=P(O)(O)O
> 46 µM	CNCc1ccccc1.Cl
> 46 µM	O=c1[nH]c(=O)c2ccccc2o1
> 46 µM	F[C@@]([C@](C=C4)(C)C3=CC4=O)2[C@@H](O)C[C@]([C@](C5)([H])[C@@]([H])2CC3)(C)[C@@]1([C@](CO)=O)[C@@H]5OC(C)(C)O1
